Here are results for 2 molecules from patent US20050260637A1, “Drug screening” (priority 2004, published 2005).

Data set [1] has as its target T1, M2/M1 (hRRM2 and hRRM1 reconstituted RNR) (Homo sapiens, UniProt P31350).
T1 construct: 6xHis; made in house
T1 sequence (P31350 1-389): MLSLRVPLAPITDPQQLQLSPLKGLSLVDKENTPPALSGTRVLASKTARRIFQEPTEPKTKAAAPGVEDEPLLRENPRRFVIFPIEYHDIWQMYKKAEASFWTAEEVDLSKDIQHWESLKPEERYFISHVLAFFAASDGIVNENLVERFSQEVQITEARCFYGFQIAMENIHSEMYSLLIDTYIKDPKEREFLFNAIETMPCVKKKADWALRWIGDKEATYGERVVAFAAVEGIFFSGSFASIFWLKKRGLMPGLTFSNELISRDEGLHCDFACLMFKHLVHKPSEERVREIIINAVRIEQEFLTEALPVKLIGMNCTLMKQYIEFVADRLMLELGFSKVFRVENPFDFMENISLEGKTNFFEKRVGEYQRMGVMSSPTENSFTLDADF
The data set is described as follows: In vitro RNR activity assay with reconstituted hRRM2/hRRM1 ([3H]CDP reduction). The data set is classed as biochemical. As to conditions: read-out: In vitro RR activity (IC50 ± sd) M2/M1. The procedure:
(§1) To reconstitute an active RNR, three 6′His-tag human RNR subunit proteins (hRRM2, p53R2, and hRRM1) were prokaryotically expressed, purified using Ni-resin affinity chromatography, and stored in 50 mM Tris-HCl, pH 7.4, 100 mM KCl at −70° C. according to standard techniques. The purified proteins were subjected to SDS-PAGE analysis. […] To reconstitute RNR, 1 μM of hRRM2 or p53R2 protein was incubated with 0.5 μM hRRM1 protein in multiple-well plates. The reconstitute RNR was tested for RNR activity according to standard techniques.
(§2) Each compound of various concentration was mixed with the purified hRRM2 and hRRM1, or p53R2 and hRRM1 at room temperature for 30 minutes. An enzymatic reaction buffer was then added to the mixture to reach a final volume of 100 μl and incubated at 37° C. for 30 minutes. The reaction buffer contained […] [^3H] CDP, 50 mM HEPES pH 7.2,6 mM DTT, 4 mM MgOAC, 2 mM ATP, 0.05 mM CDP, 100 mM KCl, and 0.24 mM NADPH. […] FeCl3 could be added to the buffer as an iron source. After dephosphorylation, the supernatant of each reaction mixture was analyzed by an HPLC-connected radioactivity detector. IC50 values were calculated by the non-linear regression equations: f (x)=(a-d)/[1+(x/c)^b]+d.

Data set [2] concerns the target T2, p53R2/M1 (p53R2 and hRRM1 reconstituted RNR) (Homo sapiens, UniProt Q7LG56).
T2 construct: 6xHis; made in house
T2 sequence (Q7LG56 1-351): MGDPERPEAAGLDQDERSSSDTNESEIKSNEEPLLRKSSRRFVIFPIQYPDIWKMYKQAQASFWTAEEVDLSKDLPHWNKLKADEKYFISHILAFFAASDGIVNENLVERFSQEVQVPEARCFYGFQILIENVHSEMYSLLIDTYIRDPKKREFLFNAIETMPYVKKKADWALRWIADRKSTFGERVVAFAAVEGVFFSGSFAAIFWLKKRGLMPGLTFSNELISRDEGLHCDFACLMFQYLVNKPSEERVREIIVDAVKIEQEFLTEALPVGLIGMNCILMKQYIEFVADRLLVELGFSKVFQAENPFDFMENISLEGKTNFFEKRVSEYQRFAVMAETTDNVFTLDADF
As to the kind of experiment: In vitro RNR activity assay with reconstituted p53R2/hRRM1 ([3H]CDP reduction). As to conditions: read-out: In vitro RR activity (IC50 ± sd) p53R2/M1. The data set is classed as biochemical. The procedure: as §1, §2

The test system of data set [3] is T3, RNR containing hRRM2 or p53R2.
T3 construct: In vitro RR activity (IC50) Average; other: compound in 1% DMSO; average of M2/M1 and p53R2/M1; other: compound in 2.5% DMSO; other: compound in dH2O + FeCl3; other: compound in dH2O; Inhi; fused on or other part: 6xHis tag on each subunit
The data set is described as follows: In vitro RNR activity assay, both reconstituted RNRs compared (average, selective index, comparison in words). The data set is classed as biochemical, human. As to conditions: for IC50: average of M2/M1 and p53R2/M1, read-out: In vitro RR activity (IC50) Average. The procedure: as §1, §2
The above-described four SB-HSCs were tested for their inhibitory potency and subunit-selectivity by the in vitro RNR assay in the same manner descried above. The dose-dependent inhibition curves were found.

In data set [4] the test system is tyrosyl radicals of both RNR small subunits (hRRM2, p53R2). As to the kind of experiment: EPR spectroscopy of tyrosyl radical after incubation with compound. The data set is classed as biochemical, human. Particulars: protein incubated with compound at room temperature for 30 minutes; EPR at 20 K. The procedure: Electron paramagnetic resonance (EPR) spectroscopy was then conducted. Prior to EPR, protein samples were incubated with each of the above-described compounds at room temperature for 30 minutes. EPR parameters were set as following: T=20 K, microwave frequency=9.376 GHz, microwave power=0.5 mW, modulation amplitude 4 gauss, modulation frequency 100 KHz. […] The EPR analysis was conduced in the presence of irons and the reductants.

The target in the next data set is T4, p53R2/hRRM1 (Homo sapiens, UniProt Q7LG56, Y124W).
T4 construct: 6xHis; made in house; host or cells: E. coli BL21(DE3), pET-p53R2 template
T4 sequence (Q7LG56 1-351 Y124W): T2 sequence (Q7LG56 1-351) with Y124W
The data set is described as follows: RNR activity of mutated p53R2 proteins with hRRM1 (modified [3H]CDP reduction assay). The data set is classed as biochemical. The procedure: The activities of hRRM2/hRRM1 and p53R2/hRRM1 were measured using a modified [^3H] CDP reduction assay. The reaction mixture contained 0.125 μM [^3H] CDP (0.3 μCi), 50 mM of HEPES (pH 7.2), 6 mM DTT, 4 mM MgOAC, 2 mM ATP, 0.05 mM CDP, 100 mM KCl, 0.24 mM NADPH. The enzyme activity was measured in the presence of 0.5 μM of M1 protein and 1 μM of hRRM2 or p53R2 proteins with a total sample volume of 100 μl. After incubation at 37° C. for 15-30 minutes and dephosphorylation with phosphodiesterase, the supernatant was analyzed by HPLC using a C-18 reversed phase column to separate [^3H] cytidine and [^3H] deoxycytidine. Radioactivity of the HPLC aliquots was measured with a β-RAM-2B Flow-through radioisotope beta/gamma detector (IN/US Systems, Tampa, Fla.). The enzyme activity was measured as relative activity of dCDP/(CDP+dCDP)% (i. e., the percentage of dCDP of all ribonucleoside diphosphates and deoxyribonucleoside diphosphates). Results were normalized against those of wild type proteins, which were considered having 100% conversion of CDP to dCDP. Each value is the average of two to three determinations with deviations <0.3%.

Where a chain is given by its changes, count along the chain named. Names and notes keep the numbering of the source. Like-named read-outs stand apart in the source and are kept apart here.

As for `NC(=O)NO` [HU, Hydroxyurea], the IC50 worked out at 148 ± 7.34 µM in data set [1] (compound in 1% DMSO); 155 ± 6.59 µM in data set [1] (compound in 2.5% DMSO); 556 ± 24.1 µM in data set [1] (compound in dH2O + FeCl3); 165 ± 7.95 µM in data set [1] (compound in dH2O); 159 ± 6.82 µM in data set [2] (compound in 1% DMSO); 146 ± 6.06 µM in data set [2] (compound in 2.5% DMSO). Moreover, the IC50 in data set [2] (compound in dH2O + FeCl3) amounted to 1990 ± 71.2 µM; in data set [2] (compound in dH2O), 190 ± 6.43 µM; in data set [3] (compound in 1% DMSO), 153 µM; in data set [3] (compound in 2.5% DMSO) it was 150 µM; in data set [3] (compound in dH2O + FeCl3), 1270 µM; in data set [3] (compound in dH2O) it was 178 µM. For the same molecule, the “Inhibition of reconstituted RNR activity (in words)” value in data set [3] is reported as “significantly inhibited the activity of RNR containing hRRM2 or p53R2”. In addition, the “Quenching of tyrosyl radical EPR signal” value in data set [4] was “quenched the tyrosyl radicals of both RNR small subunits”.

B1: Y124W-p53R2: p53R2 mutant with Tyr124 replaced by tryptophan (SEQ ID NO: 19) (protein, listed as Homo sapiens)
chain: T2 sequence (Q7LG56 1-351) with Y124W
For B1, in the data set with p53R2/hRRM1, the “Enzyme activity retained, fraction of the wild type protein” value was 1/3.
